In PubChem BioAssay (NCI):
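Protocol summary: plate cells (96-well), add compound at 5 concentrations, incubate 48 h, interpolate endpoints linearly. TGI denotes the concentration required for complete inhibition of growth.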

Key:
Assay in all cases: growth of human tumour cells (NCI), 48 h
[1] = test system: OVCAR-8 ovarian
[2] = test system: TK-10 renal
[3] = test system: A498 renal
[4] = test system: HT29 colon
[5] = test system: DU-145 prostate
[6] = test system: HOP-62 NSCLC
[7] = test system: SK-OV-3 ovarian
[8] = test system: HCC-2998 colon
[9] = test system: UO-31 renal
[10] = test system: OVCAR-5 ovarian
[11] = test system: ACHN renal
[12] = test system: SF-539 CNS
[13] = test system: MDA-N
[14] = test system: HOP-92 NSCLC
[15] = test system: HL-60(TB) leukemia
[16] = test system: U251 CNS
[17] = test system: CCRF-CEM leukemia
[18] = test system: NCI-H522 lung
[19] = test system: SF-295 CNS
[20] = test system: SNB-75 CNS

Row | SMILES | TGI [1] [µM] | TGI [2] [µM] | TGI [3] [µM] | TGI [4] [µM] | TGI [5] [µM] | TGI [6] [µM] | TGI [7] [µM] | TGI [8] [µM] | TGI [9] [µM] | TGI [10] [µM] | TGI [11] [µM] | TGI [12] [µM] | TGI [13] [µM] | TGI [14] [µM] | TGI [15] [µM] | TGI [16] [µM] | TGI [17] [µM] | TGI [18] [µM] | TGI [19] [µM] | TGI [20] [µM]
1 | CCOC(=O)N/N=C(\CC)NO | > 100 | > 100 | > 100 | > 100 | > 100 | > 100 | > 100 | > 100 | > 100 | > 100 | > 100 | > 100 | > 100 | > 100 | > 100 | > 100 | > 100 | > 100 | – | –
2 | COc1ccc(/C=C2\Sc3nnc(-c4ccccc4)n3N=C2c2cc(F)c(Cl)cc2Cl)cc1OC | > 100 | > 100 | > 100 | > 100 | > 100 | > 100 | > 100 | 47.2 | > 100 | > 100 | > 100 | > 100 | > 100 | > 100 | > 100 | > 100 | > 100 | 38.3 | > 100 | –
3 | COC1(OC)N=C(N)C2(C#N)C(C)=C3NCN(C)N=C3C12C#N (stereo not drawn) | > 100 | > 100 | > 100 | > 100 | > 100 | > 100 | > 100 | > 100 | > 100 | > 100 | > 100 | > 100 | > 100 | > 100 | – | > 100 | – | > 100 | > 100 | > 100
4 | O=C(Cn1c(C(=O)/C=C/c2ccc(Cl)cc2)nc2ccccc21)c1ccc(Cl)cc1 | – | 98.5 | > 100 | 42.5 | 56.1 | 41.6 | > 100 | 32.4 | 43 | 64.1 | 72.5 | 38.6 | 61 | > 100 | 29.1 | 33.4 | 8.45 | – | – | –
5 | COc1cc2c(c(OC)c1OC)C(=O)[C@@H](O)[C@H]2NC(N)=O | > 100 | > 100 | – | > 100 | > 100 | > 100 | – | > 100 | > 100 | > 100 | > 100 | > 100 | > 100 | – | > 100 | > 100 | > 100 | > 100 | > 100 | > 100
6 | CC(=Nc1cccc(Cl)c1)c1ccncc1 | > 100 | > 100 | > 100 | > 100 | > 100 | > 100 | > 100 | > 100 | > 100 | > 100 | > 100 | > 100 | > 100 | > 100 | – | > 100 | > 100 | > 100 | > 100 | > 100
7 | CN(C)CCNC(=O)c1cccc2c1Oc1cccc([N+](=O)[O-])c1O2 | 50 | > 100 | 30.5 | 33.5 | 31.5 | 30.6 | 37.4 | 56.1 | 32.5 | 39.5 | 37.5 | 40.1 | 31.6 | – | 51.7 | 42.8 | 89.8 | 32.9 | 36.7 | 40.5
8 | CCCCCCCCCC(=O)NC(CCC(=O)N(CCNC(=O)c1nc(-c2ccccc2)oc1-c1ccccc1)Cc1ccccc1)C(=O)O (stereo not drawn) | 35.5 | 53.6 | 39.7 | 32.3 | 43.7 | 30.5 | 30.7 | – | 28.5 | 31.7 | 38 | 41.7 | 36.4 | 34.8 | – | 35.8 | – | 34.3 | 32.8 | 29.6
9 | Cc1cccc(Nc2nc3ccccc3nc2NS(=O)(=O)c2ccccc2)c1 | > 100 | > 100 | – | > 100 | > 100 | 87.1 | > 100 | 6.93 | 59 | > 100 | > 100 | > 100 | > 100 | 63.7 | 37.8 | 59 | 86.5 | 73.9 | > 100 | 63.8
10 | CC(C)OC(=O)C1(C(C)C)CCc2ccc(C(=O)CCC(=O)O)cc21 (stereo not drawn) | > 100 | > 100 | – | > 100 | > 100 | > 100 | > 100 | > 100 | > 100 | > 100 | > 100 | > 100 | > 100 | – | > 100 | > 100 | > 100 | > 100 | > 100 | > 100
11 | C=CCSC1=N/C(=C\c2ccc(OC)cc2)C(=O)N1CC=C | > 100 | > 100 | 66.6 | > 100 | > 100 | > 100 | > 100 | 79.7 | > 100 | > 100 | > 100 | > 100 | 59.8 | > 100 | 34.8 | > 100 | 78 | > 100 | > 100 | –
12 | Cc1c(NC(=O)CSC(=S)N(C)C)c(=O)n(-c2ccccc2)n1C | > 100 | > 100 | – | > 100 | > 100 | > 100 | > 100 | > 100 | > 100 | > 100 | > 100 | > 100 | > 100 | – | – | > 100 | > 100 | > 100 | > 100 | > 100
13 | Cc1ccc2c(c1)C=CC1(O2)N(c2ccccc2)C(=S)OC1(C)C (stereo not drawn) | > 100 | > 100 | > 100 | > 100 | > 100 | > 100 | > 100 | > 100 | > 100 | > 100 | > 100 | – | 94.3 | > 100 | 31.2 | > 100 | > 100 | – | > 100 | > 100
14 | c1ccc(C2=NN=C3C(c4ccccc4)=Nc4ccccc4N3C2)cc1 | > 100 | 43.4 | > 100 | > 69.6 | > 100 | > 100 | > 100 | > 100 | > 59.4 | > 94.3 | > 100 | > 100 | > 100 | > 88.9 | 22.2 | > 100 | 20.2 | 22.8 | – | –
15 | CC(=O)NC1CC(C(C)(C)NC(C)=O)CC=C1C (stereo not drawn) | > 100 | > 100 | – | > 100 | > 100 | > 100 | > 100 | > 100 | > 100 | > 100 | – | > 100 | > 100 | > 100 | > 100 | > 100 | > 100 | > 100 | > 100 | > 100
16 | COc1ccc2nc3n(c2c1)C(c1c(F)cccc1F)SC3 (stereo not drawn) | > 100 | > 100 | > 100 | > 100 | > 100 | > 100 | > 100 | > 100 | > 100 | > 100 | > 100 | > 100 | > 100 | > 100 | 78.7 | > 100 | > 100 | – | > 100 | > 100
17 | Nc1n[nH]c2c(C(=O)Nc3ccc(Cl)cc3)c(N)n(N)c(=O)c12 | > 100 | > 100 | > 100 | > 100 | > 100 | – | > 100 | > 100 | > 100 | > 100 | – | > 100 | > 100 | – | > 100 | > 100 | > 100 | > 100 | – | > 100
18 | Cc1ccc(C)n2c1nc1cc3ccccc3cc12 | > 100 | > 100 | – | – | > 100 | > 100 | > 100 | – | 94.4 | > 100 | > 100 | > 100 | > 100 | > 100 | > 100 | > 100 | > 100 | – | > 100 | 57.6
19 | O=[N+]([O-])c1cccc(-c2cn3c(n2)Cc2ccccc2C3)c1 | > 100 | > 100 | > 100 | > 100 | > 100 | > 100 | > 100 | – | > 100 | 79.9 | > 100 | > 100 | > 100 | > 100 | > 100 | > 100 | > 100 | > 100 | > 100 | > 100
20 | O=c1[nH]nc(-c2ccccc2)n1-c1cccc([N+](=O)[O-])c1 | > 100 | > 100 | > 100 | > 100 | > 100 | > 100 | > 100 | > 100 | > 100 | > 100 | > 100 | > 100 | > 100 | > 100 | – | > 100 | > 100 | > 100 | > 100 | > 100
21 | COc1cccc(/C=C2\SC(=S)N(/C=C3\C(=O)Oc4ccccc4C3=O)C2=O)c1O | > 100 | – | 48 | > 100 | > 100 | > 100 | > 100 | 87 | 48.2 | > 100 | > 100 | 83.2 | > 100 | – | > 100 | > 100 | > 100 | > 100 | > 100 | > 100
22 | CC1=NN(C(=O)CC(=O)NC(=O)/C=C\c2ccccc2)C(=O)C1N=Nc1ccc([N+](=O)[O-])cc1 (stereo not drawn) | > 100 | > 100 | > 100 | > 100 | > 100 | > 100 | > 100 | > 100 | > 100 | > 100 | > 100 | > 100 | > 100 | 97.4 | > 100 | > 100 | > 100 | – | > 100 | > 100
23 | CC1CC(=NC2CCCCC2)Nc2ccccc2N1Cc1ccccc1 (stereo not drawn) | 19.8 | 25.2 | 9.7 | 12.5 | 17 | 20.3 | 23.4 | 11.5 | 13.3 | 24 | 22.8 | 22.5 | 12.5 | – | 20.2 | 19.9 | > 36.4 | 13.6 | 19.4 | 3.18
24 | CN1C(=O)[C@H](c2c[nH]c3ccccc23)[C@H](c2c[nH]c3ccccc23)C1=O | > 100 | 61.2 | – | > 83.4 | > 100 | > 64.1 | > 100 | > 100 | 62.4 | > 100 | > 66.3 | > 54.3 | > 100 | > 67.3 | > 46.9 | > 90.1 | 87 | > 100 | > 73.7 | > 92.8
25 | COC(=O)[C@]12C3=C(O)C(=O)C[C@H]1OC[C@H]2C=CC3 | > 100 | > 100 | > 100 | – | > 100 | > 100 | > 100 | > 100 | > 100 | > 100 | > 100 | – | > 100 | > 100 | – | > 100 | – | 46.8 | > 100 | > 100
26 | Cc1ccc2c(n1)NC(=O)C(Cc1ccccc1)(N=[N+]=[N-])C2=O (stereo not drawn) | > 100 | > 100 | > 100 | > 100 | > 100 | > 100 | > 100 | > 100 | > 100 | > 100 | > 100 | > 100 | > 100 | > 100 | – | > 100 | > 100 | > 100 | > 100 | –
